Test results from PMC12549899 (Nature Communications, 2025).

Target: T1, human OTOP1 (hOTOP1) (Homo sapiens, UniProt Q7RTM1)
T1 construct: expressed in transfected cells; host or cells: HEK-293 (CRL-1573, ATCC)
T1 sequence (Q7RTM1 1-612): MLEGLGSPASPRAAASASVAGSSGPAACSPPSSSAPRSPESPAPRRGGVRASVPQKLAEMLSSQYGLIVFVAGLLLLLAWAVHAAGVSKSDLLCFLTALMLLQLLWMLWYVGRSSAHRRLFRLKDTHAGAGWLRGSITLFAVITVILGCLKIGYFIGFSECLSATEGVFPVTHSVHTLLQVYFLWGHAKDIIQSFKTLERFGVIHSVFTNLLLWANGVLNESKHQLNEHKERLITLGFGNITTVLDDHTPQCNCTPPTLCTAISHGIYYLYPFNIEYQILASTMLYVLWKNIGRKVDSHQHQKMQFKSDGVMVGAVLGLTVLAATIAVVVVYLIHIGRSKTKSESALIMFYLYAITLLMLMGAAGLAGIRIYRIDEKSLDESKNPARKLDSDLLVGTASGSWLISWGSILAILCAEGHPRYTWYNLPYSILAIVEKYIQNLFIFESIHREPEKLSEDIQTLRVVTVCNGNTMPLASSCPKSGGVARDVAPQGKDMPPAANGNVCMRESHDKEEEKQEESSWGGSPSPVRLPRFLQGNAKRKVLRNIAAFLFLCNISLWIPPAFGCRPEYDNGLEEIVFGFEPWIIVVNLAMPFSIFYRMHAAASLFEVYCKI
Assay: Whole-cell patch-clamp, inhibition of currents, hOTOP1 in HEK-293 cells
Assay type: cell-based
Settings: HEK293, 300 µM (saturating concentration of C11)
Source text: The second series of compounds was again tested by whole-cell patch-clamp recording of DrOTOP1 expressed in HEK-293 cells. Of the 54 compounds tested, we identified 16 that inhibited DrOTOP1 acid-induced currents by over 25% (Fig. 2D and Supplementary Fig. 3E). […] The Hill coefficient of 1.52 indicated positive cooperativity and multiple binding sites, similar to C11. We next tested each of these compounds against mouse OTOP1 (mOTOP1) and human (Homo sapiens) OTOP1 (hOTOP1), which are among the closest related proteins in the mammalian proteome. […] For both compounds, we also determined whether there was any pH-dependence to their inhibitory effect by measuring dose-response curves over a range from pH 6.0, where sizable currents first appear, to pH 5.0. […]
Whole-cell patch-clamp recording was performed as previously described[6],[22],[25]. Recordings were made with an Axopatch 200B amplifier, digitized with a Digidata 1322a 16-bit data acquisition system, acquired with pClamp 8.2 and analyzed with Clampfit 10 (Molecular Devices). […]
All data are presented as mean ± SEM unless otherwise noted, and each data point represents an independent replicant. Inhibition of compounds was quantified as ((I2peak-I1)/(I2peak))*100, where I1 is the current immediately before wash-off and I2peak is the maximum recovered current (Supplementary Fig. 2). […]

## O=C(/C(=N\O)c1ccccc1)c1ccccc1 [C11, benzil monoxime]
  inhibition at 300 µM: ~24%
